US20070015733A1, “Aryl Phosphate Derivatives of d4T having Activity Against Resistant HIV Strains” (Parker Hughes Institute, priority 1998, published 2007)
Like-named read-outs stand apart in the source and are kept apart here.

Experiments:
[1] = test system: AZT- and NNI-resistant HIV-1 (strain: RTMDR-1); test: Inhibition of RTMDR-1 (HIV-MDR) replication in PBMNC (RT activity); assay type: cell-based
Experimental: (§1) Cellular Assays of Anti-HIV Activity and Cytotoxicity. […] Percent viral inhibition was calculated by comparing the RT activity values from the test substance-treated infected cells with RT values from untreated infected cells (i.e., virus controls).

[2] = test system: NRTI-resistant recombinant HIV-1 isolates; test: Documented fold decreased susceptibility of recombinant HIV-1 clones; assay type: cell-based; settings: for mean reduction in susceptibility: mean over 6 recombinant clones; for median reduction in susceptibility: median over 6 recombinant clones
[3] = test system: Zidovudine-Sensitive Primary Clinical HIV-1 Isolates; test: p24 drug susceptibility assay, zidovudine-sensitive primary clinical HIV-1 isolates in PBMC; assay type: cell-based; settings: Human immunodeficiency virus 1, PBMC
Experimental: Antiviral susceptibility assays. Phenotypic drug susceptibility studies of HIV-1 isolates and strains were performed by measuring the production of the p24 gag protein in peripheral blood mononuclear cells (PBMC) from seronegative healthy volunteers in the presence of increasing concentrations of the anti-HIV agent using the quantitative Coulter HIV-1 p24 antigen ezyme immunoassay (EIA) and HIV-1 p24 Antigen Kinetic Standard (Beckman Coulter), as previously described (Uckun, 1998, Antimicrobial Agents and Chemotherapy 37(4): 835-38). Informed consent was obtained from the blood donors according to DHHS guidelines using consent forms approved by the Institutional Review Board. In brief, PBMC were cultured for 72 h in RPMI 1640 medium (Gibco) supplemented with 20% (vol/vol) heat-inactivated fetal bovine serum, 5% human interleukin-2 (Zeptometrix), 2 mM L-glutamine, 25 mM HEPES, 2 g/L NaHCO3, 100 U/ml penicillin/streptomycin (Gibco), 50 μg/ml gentamicin (Gibco), and 5 μg/ml phytohemagglutinin-P (PHA-P) (Sigma) for 24-72 hours prior to exposure to HIV at a multiplicity of infection of 0.001-0.1 during a 1-h adsorbtion period at 37±1° C. in a humidified 5-7% CO2 atmosphere. Subsequently, cells were cultured in 96-well microtiter plates (100 μl/well; 2×10^6 cells/ml, triplicate wells) in the presence of the anti-HIV agents at 6-7 different concentrations ranging from 0.0001 μM to 100 μM, and 25 μL aliquots of culture supernatants were removed from the wells on day 6 after infection for p24 EIA, as previously described (Uckun, 1998, Antimicrobial Agents and Chemotherapy, 37(4):835-38). Controls included uninfected and untreated cells (background control) and infected but untreated (virus control) cells. The p24 EIA utilizes a murine monoclonal antibody to HIV core protein used to coat microwell strips to which the antigen present in the test culture supernatant samples binds. Percent inhibition of viral replication was calculated by comparing the p24 values from the test substance-treated infected cells with p24 values from untreated infected cells (i.e., virus controls). The IC50 values were determined using the Statview statistics program (SAS Institute, Inc.). In parallel, the effects of various treatments on cell viability were also examined as previously described (Uckun, 1998, Antimicrobial Agents and Chemotherapy, 42:383-388). In brief, noninfected PBMC were treated with each compound for 5 days under identical experimental conditions. A microculture tetrazolium assay (MTA) was performed to quantitate cellular proliferation (Uckun, 1998, Antimicrobial Agents and Chemotherapy, 42:383-388).
Phenotypic drug susceptibility studies of HIV-1 isolates and strains were performed by measuring the production of the p24 gag protein in peripheral blood mononuclear cells (PBMC) from seronegative healthy volunteers in the presence of increasing concentrations of the anti-HIV agent using the quantitative Coulter HIV-1 p24 antigen enzyme immunoassay (EIA) and HIV-1 p24 Antigen Kinetic Standard (Beckman Coulter), as previously described. StatView was used in the calculation of the IC50 values from each set of triplicate wells using the linearized form of an exponential equation (lnY=lnb0+b1X; where Y=% inhibition, X=drug concentration). The inhibition constants were log10 transformed to homogenize the variances within each group. […] P-values below 0.05 were deemed significant (JMP Software, SAS).

[4] = test system: NRTI-resistant recombinant HIV-1 isolates; settings: cited from earlier work
[5] = test system: zidovudine-resistant primary clinical HIV-1 isolates in CD4-expressing HeLa cell line HT4-6C; test: Syncytial focus (plaque) formation assay in HT4-6C cells; assay type: cell-based; settings: Human immunodeficiency virus 1, HeLa
Experimental: Plaque formation assays. The syncytial focus (plaque) assay permits quantitation of infectivity of HIV. In brief, a CD4-expressing HeLa cell line (HT4-6C) (AIDS Research and Reference Reagent Program, NIAID) is cultured in 24-well tissue culture plates at 2.5-3.0×10^4 cells/ml in the presence of virus inoculum (100 plaque forming units) and several concentrations of the antiviral agent. The virus was added first for a 2 hr incubation time prior to addition of the antiviral agents. […] Percent inhibition of plaque formation was calculated by comparing the plaque numbers from the test substance-treated infected cells with the plaque numbers from untreated infected cells (i.e., virus controls).

[6] = test system: NRTI-resistant recombinant HIV-1 isolates; test: RT activity assay, multi-NRTI-resistant recombinant HIV-1 clones; assay type: cell-based
[7] = test system: HIV-2 (Strain: CBL-20); test: Inhibition of HIV-2 replication in PBMNC (RT activity); assay type: cell-based
Experimental: (P-AZT) and with AZT. The incubation and analysis methods used were as described above for Example 3.
as §1

[8] = Pharmacokinetics after intravenous or oral administration; assay type: in vivo, mice; settings: intravenous administration
[9] = read-out: IC50, μM (p24), Mean ± SE, mean over 10 zidovudine-sensitive clinical isolates
[10] = read-out: IC50, μM (p24), isolate 92BR025 (C/C, Brazil), PBMC
[11] = read-out: IC50, μM (p24), isolate 92RW008 (—/A, Rawanda), PBMC
[12] = read-out: IC50, μM (p24), isolate 93BR019 (—/BF, Brazil), PBMC
[13] = read-out: IC50, μM (p24), isolate 93BR020 (F/F, Brazil), PBMC
[14] = read-out: IC50, μM (p24), isolate 93BR029 (F/B, Brazil), PBMC
[15] = read-out: IC50, μM (p24), isolate 93IN101 (—/C, India), PBMC
[16] = read-out: IC50, μM (p24), isolate HIV-1G3 (—/G, Nigeria), PBMC
[17] = read-out: IC50 range, range over 10 zidovudine-sensitive clinical isolates

Cc1cn([C@H]2C[C@H](N=[N+]=[N-])[C@@H](CO)O2)c(=O)[nH]c1=O [AZT, 3′-azido-3′-deoxythymidine]
IC50 ([1]; Human immunodeficiency virus 1, read-out: HIV-MDR IC50 [RT]): 2000 nM
IC50 ([1]; Human immunodeficiency virus 1, read-out: IC50 against HIV-MDR): 2000 nM
IC50 ([1]; Human immunodeficiency virus 1, read-out: RTMDR-1 IC50 [RT]): 2000 nM
antiviral activity against RTMDR-1 (in words) ([1]; PBMNC): not effective
mean reduction in susceptibility [2]: 495.7 fold
median reduction in susceptibility [2]: 490 fold
IC50 [3, 9]: 0.004 ± 0.001 µM
IC50 [3, 10]: 0.004 µM
IC50 [3, 11]: 0.002 µM
IC50 [3, 12]: 0.002 µM
IC50 [3, 13]: 0.002 µM
IC50 [3, 14]: 0.007 µM
IC50 [3, 15]: 0.001 µM
IC50 [3, 16]: 0.01 µM
IC50 [3, 17]: 0.001 to 0.01 µM
IC90 ([3]; read-out: IC90 mean ±SE): 50 ± 10 nM
IC90 ([3]; read-out: IC90 range): 11 to 90 nM
Fold decreased susceptibility ([4]; recombinant clone 1617-1): 261 fold
Fold decreased susceptibility ([4]; recombinant clone 4755-5): 61 fold
Fold decreased susceptibility ([4]; recombinant clone 7295-1): 9.9 fold
Fold decreased susceptibility ([4]; recombinant clone 7324-1): 923 fold
Fold decreased susceptibility ([4]; recombinant clone 52534-2): 719 fold
Fold decreased susceptibility ([4]; recombinant clone 56252-1): >1000 fold
IC50 ([5]; read-out: IC50, μM(Plaque Assay), Mean ± SE, mean over 9 zidovudine-resistant isolates): 3.9 ± 1 µM
IC50 ([5]; read-out: IC50, μM(Plaque Assay), isolate G190-6 (M41L, D67N, K70R, T215Y, K219Q)): 10 µM
IC50 ([5]; read-out: IC50, μM(Plaque Assay), isolate G691-2 (mutations N.D.)): 7.8 µM
IC50 ([5]; read-out: IC50, μM(Plaque Assay), isolate G704-2 (M41L, D67N, K70R, L210W, T215Y)): 5.7 µM
IC50 ([5]; read-out: IC50, μM(Plaque Assay), isolate G780-1 (M41L, D67N, K70R, T215F, K219Q)): 1.8 µM
IC50 ([5]; read-out: IC50, μM(Plaque Assay), isolate G890-1 (K20R, M41L, D67N, T69N, K70R, L210W, T215Y)): 3.6 µM
IC50 ([5]; read-out: IC50, μM(Plaque Assay), isolate H112-2 (no RT mutation, ZDV-sensitive control)): 0.015 µM
IC50 ([5]; read-out: IC50, μM(Plaque Assay), isolate J179-1 (M41L, D67N, L210W, T215Y)): 2.6 µM
IC50 ([5]; read-out: IC50, μM(Plaque Assay), isolate M709-1 (L1210W, T215Y)): 3 µM
IC50 ([5]; read-out: IC50, μM(Plaque Assay), isolate Q252-2 (M41L, L210W, T215Y)): 2.8 µM
IC50 ([5]; read-out: IC50, μM(Plaque Assay), isolate U317-8 (M41L, L210W, T215Y)): 2 µM
IC50 ([6]; Human immunodeficiency virus 1, read-out: IC50 (nM), RT, recombinant clone 1617-1): 174 nM
IC50 ([6]; Human immunodeficiency virus 1, read-out: IC50 (nM), RT, recombinant clone 4755-5): 15.4 nM
IC50 ([6]; Human immunodeficiency virus 1, read-out: IC50 (nM), RT, recombinant clone 7295-1): 0.8 nM
IC50 ([6]; Human immunodeficiency virus 1, read-out: IC50 (nM), RT, recombinant clone 7324-1): 108 nM
IC50 ([6]; Human immunodeficiency virus 1, read-out: IC50 (nM), RT, recombinant clone 52534-2): 54.8 nM
IC50 ([6]; Human immunodeficiency virus 1, read-out: IC50 (nM), RT, recombinant clone 56252-1): 187 nM
IC50 ([6]; Human immunodeficiency virus 1, read-out: mean IC50, RT, mean over 6 multi-NRTI-resistant clones): 90 ± 32.4 nM
IC50 ([7]; Human immunodeficiency virus 2, Table 3, unit inferred, read-out: HIV-2 IC50 [RT]): 2400 nM
antiviral activity against HIV-2 (in words) ([7]; PBMNC): not effective

Cc1cn([C@H]2C=C[C@@H](CO)O2)c(=O)[nH]c1=O [d4T, 2′,3′-didehydro-2′,3′-dideoxythymidine]
mean reduction in susceptibility [2]: 8.1 fold
median reduction in susceptibility [2]: 6.5 fold
IC50 [3, 9]: 0.24 ± 0.07 µM
IC50 ([3]; read-out: IC50, μM (p24), isolate 92BR003 (B/B, Brazil), PBMC): 0.1 µM
IC50 [3, 10]: 0.4 µM
IC50 [3, 11]: 0.2 µM
IC50 ([3]; read-out: IC50, μM (p24), isolate 92RW016 (subtype A/A, Rawanda), PBMC): 0.1 µM
IC50 [3, 12]: 0.2 µM
IC50 [3, 13]: 0.2 µM
IC50 [3, 14]: 0.8 µM
IC50 [3, 15]: 0.1 µM
IC50 [3, 16]: 0.1 µM
IC50 ([3]; read-out: IC50, μM (p24), isolate HIV-1JV1083 (—/G, Nigeria), PBMC): 0.2 µM
IC50 [3, 17]: 0.1 to 0.8 µM
IC90 ([3]; read-out: IC90 mean ±SE): 6380 ± 3890 nM
IC90 ([3]; read-out: IC90 range): 1000 to 40900 nM
Fold decreased susceptibility ([4]; recombinant clone 1617-1): 11 fold
Fold decreased susceptibility ([4]; recombinant clone 4755-5): 3.9 fold
Fold decreased susceptibility ([4]; recombinant clone 7295-1): 1.9 fold
Fold decreased susceptibility ([4]; recombinant clone 7324-1): 2.6 fold
Fold decreased susceptibility ([4]; recombinant clone 52534-2): 9 fold
Fold decreased susceptibility ([4]; recombinant clone 56252-1): 20 fold
elimination half-life (t1/2) of the administered substance [8]: 30.3 min

Cc1ccnc2c1NC(=O)c1cccnc1N2C1CC1 [nevirapine]
IC50 ([3]; primary isolate RW/92/8 (V179I), Table 14): 0.1 µM
